Experimental data: US9023987B2, “Cell-permeable peptide” (Seoul National University R&DB Foundation, priority 2010, dated 2015)
Ends that are not written are not given here.

Assays:
[1] = test system: human mesenchymal stem cells (hMSC); test: Cytotoxicity / cell proliferation by quantitative BrdU assay; type: cell-based; set-up: dose or concentration left out as unconfirmed; conditions: 24, 48, and 72 hours, FIG. 6
Description: In order to confirm whether or not cell proliferation is affected by potential toxicity when the cell permeable peptide-bone differentiation inducing sequence conjugate and control domains are cultured with hMSC, a degree of cell proliferation was analysis by ELISA using BrdU. Since BrdU was introduced in chromosome instead of deoxy thymidine triphosphate (dTTP) at the time of DNA replication during a proliferation process of hMSC, a degree of introduction of BrdU may reflect a degree of proliferation of hMSC.
First, After 1×10^3 human Mesenchymal Stem cells (hMSC) were plated into each well of 96-well plate, the degree of introduction of BrdU, that is, the degree of proliferation of hMSC was measured using a cell proliferation ELISA kit (BrdU (colorimetry); Boehringermanheim, Germany). Simply describing this method, the cells were treated with the cell permeable peptide-bone differentiation inducing sequence conjugate synthesized by the method in Example 1 and the domains of Example 2 at a concentration of […] and cultured in medium for forming hard tissue for 24, 48, and 72 hours. […] of BrdU (5-bromo-2′-deoxyuridine) was added to each of the groups before 24 hours of each culture time and further cultured for 24 hours. […] The reaction was terminated by 1N H2SO4, and then absorbance was measured using the ELISA reader (Bio-Tek, USA) at 450 nm.

[2] = test system: human mesenchymal stem cells (hMSC); test: Cytotoxicity by MTT assay; type: cell-based; set-up: dose or concentration left out as unconfirmed; conditions: 24, 48, and 72 hours, FIG. 5
Description: In order to confirm whether or not cell proliferation is affected by potential toxicity when the cell permeable peptide-bone differentiation inducing sequence conjugate and control domains are cultured with hMSC, a 3-[4,5-dimethylthiazo-2-yl]-2,5-diphenyl tetrazolium bromide thiazolyl blue (MTT) assay method was used.
The MTT assay method is a method for measuring cytotoxicity by measuring absorbance of formazan produced as mitochondrial dehydrogenases in alive and metabolically active cells reduces MTT to indicate the absorbance as a percentage based on the control group. In this case, the measured absorbance reflects a concentration of the alive and metabolically active cells. 2,3,5-triphenyl tetrazolium chloride (TTC) is reduced to formazan in live cells. The formazan is insoluble purple color, and a respiration rate may be measured by a degree of color. The absorbance of formazan is maximal at 540 nm, and the absorbance measured at this wavelength reflects the concentration of the alive and metabolically active cells. Since a linear relationship between the absorbance and the concentration of the cells is not established when a concentration of cells in well to be measured is excessively high or low, a process of determining an optimal concentration of the cells was performed. […]

[3] = biological target: T1, human-derived Smurf1 protein (Homo sapiens, UniProt Q9HCE7); test: Affinity to Smurf1 by surface plasmon resonance (BIACORE T100); type: binding; conditions: 10 mM analyte over Smurf1 coupled to CM5 chip; FIG. 2A
T1 construct: purchased Origene Technologies (Rockville, Md., USA)
T1 sequence (Q9HCE7 whole entry): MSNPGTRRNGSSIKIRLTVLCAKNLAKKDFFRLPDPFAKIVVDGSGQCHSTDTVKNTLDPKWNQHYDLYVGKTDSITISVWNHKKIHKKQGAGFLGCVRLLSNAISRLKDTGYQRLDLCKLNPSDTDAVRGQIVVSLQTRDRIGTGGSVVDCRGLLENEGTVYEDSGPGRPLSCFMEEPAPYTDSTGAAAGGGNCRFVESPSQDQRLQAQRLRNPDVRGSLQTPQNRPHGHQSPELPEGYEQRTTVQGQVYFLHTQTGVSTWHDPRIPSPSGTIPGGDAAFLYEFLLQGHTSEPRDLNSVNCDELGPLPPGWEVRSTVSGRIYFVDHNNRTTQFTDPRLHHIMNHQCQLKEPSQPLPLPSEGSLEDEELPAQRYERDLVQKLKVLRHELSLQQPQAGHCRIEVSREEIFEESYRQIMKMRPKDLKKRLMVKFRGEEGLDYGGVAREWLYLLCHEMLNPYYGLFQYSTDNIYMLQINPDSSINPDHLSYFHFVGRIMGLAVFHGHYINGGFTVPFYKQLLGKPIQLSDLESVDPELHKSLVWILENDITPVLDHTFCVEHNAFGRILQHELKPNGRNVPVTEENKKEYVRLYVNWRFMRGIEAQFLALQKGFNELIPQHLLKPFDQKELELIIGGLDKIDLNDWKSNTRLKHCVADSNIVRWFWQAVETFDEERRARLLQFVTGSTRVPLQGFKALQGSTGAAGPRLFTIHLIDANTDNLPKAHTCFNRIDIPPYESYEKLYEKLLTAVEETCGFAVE
Description: In order to confirm the affinity between cell permeable peptide-bone differentiation inducing sequence conjugate and Smurf1 by a chemical method, a human-derived Smurf1 protein acting as a ligand in the present experiment was purchased from Origene Technologies (Rockville, Md., USA). The protein ([…]) was coupled to a gold coated surface of a CM5 chip (BIACORE AB, Sweden) on which amino groups are bounded using an EDC/NHS kit (BIACORE AB, Sweden). (Instead of this experimental method, ‘Immobilization’ integrated into the BIACORE® T100 (BIACORE AB, Sweden) software used by the present inventors may be used). In this case, in order to find a suitable pH condition at which the protein may bind to the amino group in the CM5 chip, a method called ‘pH scouting’ was performed, thereby finding a pH condition. As a method of ‘pH scouting’, a method integrated in the BIACORE® T100 (BIACORE AB, Sweden) software used by the present inventors may be used. […]

[4] = test system: human mesenchymal stem cells (hMSC); test: Cell permeability by fluorescence imaging (confocal scanning microscope); type: cell-based; conditions: FITC/fluorescence-labeled, FIG. 3A, FIG. 7
Description: The domains synthesized in Example 1 and Comparative Examples 1 and 2 were labeled with a fluorescent material in order to measure cell permeability. 10 equivalents of fluorescein isothiocyanate (FITC) was bound to N-terminals of the synthesized domains by using triethylamine (1 ml per 1 g of resin). The synthesis of the peptide was confirmed by measuring the molecular weight thereof through MALDI-TOF.
In order to measure the cell permeability of the cell permeable peptide-bone differentiation inducing sequence conjugate, after sterile slide glass was input in a 6-well plate and 2×10^4 human mesenchymal stem cells (hMSC) were plated in each well, the cells were cultured in a general medium for 20 hours (overnight incubation). Then the cells was cultured in an hMSC basal medium (MSCBM, LONZA, USA) containing 0.5% fetal bovine serum (FBS, GIBCO, USA) for 20 hours (overnight starvation). […] fluorescence labeled cell permeable peptide-bone differentiation inducing sequence conjugate and […] fluorescence labeled bone differentiation inducing sequence that were obtained by binding FITC (SIGMA, USA) N-terminals of the cell permeable peptide-bone differentiation inducing sequence conjugate synthesized by the method in Example 1 and the domain in Comparative Example 2 to synthesize the fluorescence label conjugate and fluorescence label domain, followed by isolation and purification, were injected into each well and washed with phosphate buffer solution (PBS) two times after 20 minutes and 80 minutes of injection. The resultants was observed using a confocal scanning microscope (IX 70, Olympus Co., Tokyo, Japan).

Substance	effect on cell proliferation (BrdU, DNA synthesis ability compared with PBS) [1]	cytotoxicity (MTT, cell proliferation ability compared with PBS) [2]	affinity to Smurf1 [3] [RU]	intracellular fluorescence after 20 minutes (confocal) [4]	intracellular fluorescence after 80 minutes (confocal) [4]
GAPPPADSAP-NH2 [Comparative Example 2, GAPPPADSAP, reference compound]	did not affect the cell proliferation	did not exhibit cytotoxicity			
SSRKKNPNCRRH (H4S) [Comparative Example 1]			100	fluorescent materials uniformly present in cytoplasm were observed	fluorescent materials densely present up to in nucleus were confirmed
YGRKKRRQRRR [TAT, reference compound]				fluorescent materials uniformly present in cytoplasm were observed	fluorescent materials densely present up to in nucleus were confirmed
